Measurements taken from patent US9856279B2 (AGIOS PHARMACEUTICALS, INC, priority 2011, dated 2018).

Legend:
[1] = tested on: HT1080 cells; test: Cellular assay for IDH1m inhibitors: inhibition of 2-HG production (LC-MS, 48 hours) in HT1080 cells; format: cell-based; conditions: Homo sapiens, HT-1080; inhibition of 2-HG production, HT1080 cells; read-out: HT1080 IC50
Summary of the method: (§1)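 Cells were seeded at 5000/well in DMEM with 10% FBS, incubated overnight, then treated with compound (0.2% DMSO final) for 48 h at 37° C. Medium 2-HG was quantified by LC-MS. IC50 is the concentration reducing 2-HG by 50% versus DMSO control, and CellTiter-Glo viability was read at 72 h.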

[2] = tested on: U87MG cells; test: Cellular assay for IDH1m inhibitors: inhibition of 2-HG production (LC-MS, 48 hours) in U87MG cells; format: cell-based; conditions: Homo sapiens, U-87 MG, inhibition of 2-HG production, U87R132H cells; read-out: U87R132H IC50
Summary of the method: as §1

[3] = target: IDH1 R132H (Homo sapiens, UniProt O75874, R132H); test: Assay for IDH1 R132H inhibitors (NADPH/aKG, resazurin detection); format: biochemical; conditions: enzyme assay of Example 12; read-out: IDH1R132H IC50
IDH1 R132H, sequence (O75874 whole entry R132H): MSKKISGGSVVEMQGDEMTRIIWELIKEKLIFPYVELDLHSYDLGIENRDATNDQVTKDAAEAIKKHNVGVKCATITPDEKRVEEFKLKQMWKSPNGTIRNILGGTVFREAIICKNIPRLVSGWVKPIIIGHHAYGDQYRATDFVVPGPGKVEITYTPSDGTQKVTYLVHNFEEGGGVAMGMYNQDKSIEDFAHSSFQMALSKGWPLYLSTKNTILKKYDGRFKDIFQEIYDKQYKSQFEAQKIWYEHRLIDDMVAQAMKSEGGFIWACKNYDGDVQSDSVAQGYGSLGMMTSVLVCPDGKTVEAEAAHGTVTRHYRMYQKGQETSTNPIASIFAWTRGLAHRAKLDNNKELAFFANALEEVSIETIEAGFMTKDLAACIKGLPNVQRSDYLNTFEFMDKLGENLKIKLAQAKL
Summary of the method: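 Read-out is resorufin fluorescence (Ex544/Em590) 5 min after adding a 30 μM resazurin detection mix. Before that, mutant enzyme (0.2 μg/ml in its mix) ran 50 min at room temperature with compound, 8 uM NADPH and 2 mM aKG (mix levels) in Tris pH 7.5 with NaCl, MgCl2, BSA.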

Measured: IC50

C=CC(=O)N1CCC=C(c2c(C3CC3)nc(N3CCN(C(=O)CCO)[C@H](C(C)C)C3)c(C#N)c2C)C1 [Compound 762, (R)-1′-acryloyl-2-cyclopropyl-6-(4-(3-hydroxypropanoyl)-3-isopropylpiperazin-1-yl)-4-methyl-1′,2′,5′,6′-tetrahydro-[3,3′-bipyridine]-5-carbonitrile]
< 0.5 µM: all assays above

C=Cc1ccnc(Nc2cc(C#N)c(N3CCN(C(=O)C[C@H]4CCO4)[C@H](C(C)C)C3)nc2C2CC2)c1 [Compound 764, 6-cyclopropyl-2-((R)-3-isopropyl-4-(2-((R)-oxetan-2-yl)acetyl)piperazin-1-yl)-5-((4-vinylpyridin-2-yl)amino)nicotinonitrile]
< 0.5 µM: all assays above

C=Cc1cnc2c(-c3c(C4CC4)nc(N4CCN(C(=O)CCOC)[C@H](C(C)C)C4)c(C#N)c3C)cccc2n1 [Compound 765, 6-cyclopropyl-2-((R)-3-isopropyl-4-(3-methoxypropanoyl)piperazin-1-yl)-4-methyl-5-(2-vinylquinoxalin-5-yl)nicotinonitrile]
< 0.5 µM: all assays above

C=Cc1cnnc(-c2cc(C#N)c(N3CCN(C(=O)C[C@H]4CCO4)[C@H](C4CC4)C3)nc2C2CC2)c1 [Compound 766, 6-cyclopropyl-2-((R)-3-cyclopropyl-4-(2-((R)-oxetan-2-yl)acetyl)piperazin-1-yl)-5-(5-vinylpyridazin-3-yl)nicotinonitrile]
< 0.5 µM: all assays above

C=Cc1cnnc(-c2c(C3CC3)nc(N3CCN(C(=O)CCO)[C@H](C4CC4)C3)c(C#N)c2C)c1 [Compound 767, (R)-6-cyclopropyl-2-(3-cyclopropyl-4-(3-hydroxypropanoyl)piperazin-1-yl)-4-methyl-5-(5-vinylpyridazin-3-yl)nicotinonitrile]
< 0.5 µM: all assays above

C=Cc1cnnc(-c2c(C3CC3)nc(N3CCN(C(=O)C[C@H]4CCO4)[C@H](C4CC4)C3)c(C#N)c2C)c1 [Compound 768, 6-cyclopropyl-2-((R)-3-cyclopropyl-4-(2-((R)-oxetan-2-yl)acetyl)piperazin-1-yl)-4-methyl-5-(5-vinylpyridazin-3-yl)nicotinonitrile]
< 0.5 µM: all assays above

C=Cc1cnnc(-c2c(C3CC3)nc(N3CCN(C(=O)/C=C/CCO)[C@H](C4CC4)C3)c(C#N)c2C)c1 [Compound 769, (R,E)-6-cyclopropyl-2-(3-cyclopropyl-4-(5-hydroxypent-2-enoyl)piperazin-1-yl)-4-methyl-5-(5-vinylpyridazin-3-yl)nicotinonitrile]
< 0.5 µM: all assays above

C=Cc1cc(-c2c(C3CC3)nc(N3CCN(C(=O)CCCO)[C@H](C4CC4)C3)c(C#N)c2C)ccn1 [Compound 770, (R)-2-cyclopropyl-6-(3-cyclopropyl-4-(4-hydroxybutanoyl)piperazin-1-yl)-4-methyl-2′-vinyl-3,4′-bipyridine-5-carbonitrile]
< 0.5 µM: all assays above

C=Cc1cnnc(-c2c(C3CC3)nc(N3CCN(C(=O)OC(C)(C)C)[C@H](C4CC4)C3)c(C#N)c2C)c1 [Compound 771, (R)-tert-butyl 4-(3-cyano-6-cyclopropyl-4-methyl-5-(5-vinylpyridazin-3-yl)pyridin-2-yl)-2-cyclopropylpiperazine-1-carboxylate]
< 0.5 µM: all assays above

C=Cc1cc(Nc2cc(C#N)c(N3CCN(C(=O)C[C@@H]4CCO4)[C@H](C4CC4)C3)nc2C2CC2)ccn1 [Compound 774, 6-cyclopropyl-2-((R)-3-cyclopropyl-4-(2-((S)-oxetan-2-yl)acetyl)piperazin-1-yl)-5-((2-vinylpyridin-4-yl)amino)nicotinonitrile]
< 0.5 µM: all assays above

C=Cc1cnnc(Nc2cc(C#N)c(N3CCN(C(=O)CCOC)[C@H](C4CC4)C3)nc2C2CC2)c1 [Compound 775, (R)-6-cyclopropyl-2-(3-cyclopropyl-4-(3-methoxypropanoyl)piperazin-1-yl)-5-((5-vinylpyridazin-3-yl)amino)nicotinonitrile]
< 0.5 µM: all assays above

C=Cc1cc(-c2c(C3CC3)nc(N3CCN(C(=O)CCO)[C@H](C4CC4)C3)c(C#N)c2C)cnn1 [Compound 776, (R)-6-cyclopropyl-2-(3-cyclopropyl-4-(3-hydroxypropanoyl)piperazin-1-yl)-4-methyl-5-(6-vinylpyridazin-4-yl)nicotinonitrile]
< 0.5 µM: all assays above

C=Cc1cc(Oc2c(C3CC3)nc(N3CCN(C(=O)CCO)[C@H](C4CC4)C3)c(C#N)c2C)ccn1 [Compound 777, (R)-6-cyclopropyl-2-(3-cyclopropyl-4-(3-hydroxypropanoyl)piperazin-1-yl)-4-methyl-5-((2-vinylpyridin-4-yl)oxy)nicotinonitrile]
< 0.5 µM: all assays above

C=Cc1cc(-c2cc(C#N)c(N3CCN(C(=O)C[C@H]4CCO4)[C@H](C4CC4)C3)nc2C2CC2)c2cnn(C)c2n1 [Compound 778, 6-cyclopropyl-2-((R)-3-cyclopropyl-4-(2-((R)-oxetan-2-yl)acetyl)piperazin-1-yl)-5-(1-methyl-6-vinyl-1H-pyrazolo[3,4-b]pyridin-4-yl)nicotinonitrile]
< 0.5 µM: all assays above

C=Cc1cc(-c2c(C3CC3)nc(N3CCN(C(=O)C[C@H]4CCO4)[C@H](C(C)C)C3)c(C#N)c2C)ccn1 [Compound 781, 2-cyclopropyl-6-((R)-3-isopropyl-4-(2-((R)-oxetan-2-yl)acetyl)piperazin-1-yl)-4-methyl-2′-vinyl-3,4′-bipyridine-5-carbonitrile]
< 0.5 µM: all assays above

C=Cc1cc(-c2c(C3CC3)nc(N3CCN(C(=O)CC4CCCC4)[C@H](C4CC4)C3)c(C#N)c2C)ccn1 [Compound 782, (R)-6-(4-(2-cyclopentylacetyl)-3-cyclopropylpiperazin-1-yl)-2-cyclopropyl-4-methyl-2′-vinyl-3,4′-bipyridine-5-carbonitrile]
< 0.5 µM: all assays above

C=Cc1cnnc(-c2c(C3CC3)nc(N3CCN(C(=O)CCO)[C@H](C(C)C)C3)c(C#N)c2C)c1 [Compound 784, (R)-6-cyclopropyl-2-(4-(3-hydroxypropanoyl)-3-isopropylpiperazin-1-yl)-4-methyl-5-(5-vinylpyridazin-3-yl)nicotinonitrile]
< 0.5 µM: all assays above

C=Cc1cc(-c2c(C3CC3)nc(N3CCN(C(=O)C[C@H]4CCO4)[C@H](C4CC4)C3)c(C#N)c2C)cnn1 [Compound 785, 6-cyclopropyl-2-((R)-3-cyclopropyl-4-(2-((R)-oxetan-2-yl)acetyl)piperazin-1-yl)-4-methyl-5-(6-vinylpyridazin-4-yl)nicotinonitrile]
< 0.5 µM: all assays above

C=Cc1cc(-c2c(C3CC3)nc(N3CCN(C(=O)C[C@H]4CCO4)[C@H](C(C)C)C3)c(C#N)c2C)cnn1 [Compound 786, 6-cyclopropyl-2-((R)-3-isopropyl-4-(2-((R)-oxetan-2-yl)acetyl)piperazin-1-yl)-4-methyl-5-(6-vinylpyridazin-4-yl)nicotinonitrile]
< 0.5 µM: all assays above

C=Cc1cc(-c2c(C3CC3)nc(N3CCN(C(=O)CC4CC4)[C@H](C4CC4)C3)c(C#N)c2C)ccn1 [Compound 787, (R)-2-cyclopropyl-6-(3-cyclopropyl-4-(2-cyclopropylacetyl)piperazin-1-yl)-4-methyl-2′-vinyl-3,4′-bipyridine-5-carbonitrile]
< 0.5 µM: all assays above

C=Cc1cc(-c2c(C3CC3)nc(N3CCN(C(=O)CCCOC)[C@H](C(C)C)C3)c(C#N)c2C)ccn1 [Compound 788, (R)-2-cyclopropyl-6-(3-isopropyl-4-(4-methoxybutanoyl)piperazin-1-yl)-4-methyl-2′-vinyl-3,4′-bipyridine-5-carbonitrile]
< 0.5 µM: all assays above
